Tests used:
[1] = biological target: cruzain (Trypanosoma cruzi, UniProt P25779); test: biochemical; details: for Cruzain 0’ Inhibition / Cruzain 10’ Inhibition: sheet "Screening results"
Procedure, shortened: (§1)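 Recombinant enzymes assayed by Z-Phe-Arg-AMC cleavage at 25 °C, fluorescence 340/440 nm over 5–7 min, with 10 min or no enzyme–compound preincubation.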

[2] = biological target: T1, TbrCatL (Trypanosoma brucei rhodesiense, UniProt Q95PM0); test: TbrCatL enzymatic inhibition assay (cleavage of fluorogenic substrate Z-FR-AMC); assay type: biochemical; details: for TbrCatL 0’ Inhibition / TbrCatL 10’ Inhibition: sheet "Screening results"
T1 construct: Conor Caffrey (University of California San Diego)
Procedure, shortened: as §1

[3] = 0’ (no pre-incubation), sheet Screening results
[4] = 10’ (pre-incubation), sheet Screening results
[5] = 0’ (pre-incubation time), Pathogen Box screening results
[6] = 10’ (pre-incubation time), Pathogen Box screening results
[7] = 5 µM, PB library solutions, 10 min pre-incubation, vs DMSO control

T1 sequence (Q95PM0 entry or part of it): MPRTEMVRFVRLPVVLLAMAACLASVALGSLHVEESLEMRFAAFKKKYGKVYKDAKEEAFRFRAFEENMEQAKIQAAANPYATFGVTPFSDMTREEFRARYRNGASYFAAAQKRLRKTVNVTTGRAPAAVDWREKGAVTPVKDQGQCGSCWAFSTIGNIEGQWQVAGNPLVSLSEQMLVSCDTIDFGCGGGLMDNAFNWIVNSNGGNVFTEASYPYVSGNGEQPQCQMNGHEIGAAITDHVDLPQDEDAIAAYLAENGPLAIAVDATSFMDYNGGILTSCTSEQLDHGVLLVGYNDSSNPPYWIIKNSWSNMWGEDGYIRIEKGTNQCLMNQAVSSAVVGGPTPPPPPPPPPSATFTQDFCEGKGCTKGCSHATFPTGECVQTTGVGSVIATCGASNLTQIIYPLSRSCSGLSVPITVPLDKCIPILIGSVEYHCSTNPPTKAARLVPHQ
cruzain, sequence (P25779 123-337 limits assumed): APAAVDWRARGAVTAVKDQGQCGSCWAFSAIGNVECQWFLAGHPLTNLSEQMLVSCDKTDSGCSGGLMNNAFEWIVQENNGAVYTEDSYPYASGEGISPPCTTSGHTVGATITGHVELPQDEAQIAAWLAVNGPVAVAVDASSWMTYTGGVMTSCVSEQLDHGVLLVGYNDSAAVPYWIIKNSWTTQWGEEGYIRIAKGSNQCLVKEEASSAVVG

| Structure (SMILES) | Cruzain Inhibition 0’ [1, 3] [%] | Cruzain Inhibition 10’ [1, 4] [%] | TbrCatL Inhibition 0’ [2, 3] [%] | TbrCatL Inhibition 10’ [2, 4] [%] | also measured |
| --- | --- | --- | --- | --- | --- |
| O=C(c1ccc(F)cc1)N(CCNc1ccccc1)c1ccccc1 [MMV676204] | 6 | 4.7 | 2.6 | -1.3 | – |
| CN1CCN(c2nccc3nc(-c4ccc(F)c(F)c4)[nH]c23)CC1 [MMV676260] | – | – | – | – | Cruzain 0’ Inhibition ([1]; 0’ (pre-incubation time)): -9%; Cruzain 10’ Inhibition ([1]; 10’ (pre-incubation time)): 1.2%; TbrCatL 0’ Inhibition ([2]; 0’ (pre-incubation time)): 0.7%; TbrCatL 10’ Inhibition ([2]; 10’ (pre-incubation time)): 5% |
| C[C@H](C(N)=O)N1CCCC[C@H]1c1ccc(OCc2cccc(F)c2)cc1 [MMV676269] | – | – | – | – | Cruzain 0’ Inhibition ([1]; 0’ (pre-incubation time)): 0.4%; Cruzain 10’ Inhibition ([1]; 10’ (pre-incubation time)): 2%; TbrCatL 0’ Inhibition ([2]; 0’ (pre-incubation time)): -3%; TbrCatL 10’ Inhibition ([2]; 10’ (pre-incubation time)): -4.7% |
| C[C@H](C(N)=O)N1CCCC[C@@H]1c1ccc(OCc2cccc(F)c2)cc1 [MMV676270] | – | – | – | – | Cruzain Inhibition 0’ [1, 5]: 4.6%; Cruzain Inhibition 10’ [1, 6]: 9%; TbrCatL Inhibition 0’ [2, 5]: 3.2%; TbrCatL Inhibition 10’ [2, 6]: -0.6% |
| Cc1c[nH]c(CCNC(=O)c2cc(-c3ccc(Cl)cc3)cs2)n1 [MMV676350] | 17 | 22 | 28 | 28 | – |
| Nc1ncc(Br)cc1-c1nc2cc(Cl)cnc2[nH]1 [MMV676358] | – | – | – | – | Cruzain 0’ Inhibition ([1]; 0’ (pre-incubation time)): -2.8%; Cruzain 10’ Inhibition ([1]; 10’ (pre-incubation time)): 8%; TbrCatL 0’ Inhibition ([2]; 0’ (pre-incubation time)): -9%; TbrCatL 10’ Inhibition ([2]; 10’ (pre-incubation time)): -2.5% |
| Brc1c(-c2ccc3c(c2)OCO3)nc2ncccn12 [MMV676377] | 1.2 | -0.9 | 5 | -1.8 | – |
| COc1cccc(OCC(=O)c2ccc(Br)cc2)c1 [MMV676379] | 8 | 14 | 9 | 20 | – |
| CC(=O)Nc1ccc(NC(=O)c2cc(-c3cc(Cl)ccc3O)n[nH]2)cc1 [MMV676380] | 0.6 | -0.9 | -5 | -3 | – |
| Cn1ncc2c(N3CCOCC3)nc(NCCc3c[nH]c4ccccc34)nc21 [MMV676382] | 17 | 15 | 4.7 | 7.5 | – |
| CCC(Sc1nc2ccccc2o1)C(=O)Nc1nccs1 (stereo not drawn) [MMV676383] | 3.5 | 4 | 10 | 7.5 | – |
| N#Cc1nc(-c2ccccc2F)oc1NCCc1ccccc1 [MMV676384] | – | – | – | – | Cruzain 0’ Inhibition ([1]; 0’ (pre-incubation time)): 7%; Cruzain 10’ Inhibition ([1]; 10’ (pre-incubation time)): 6%; TbrCatL 0’ Inhibition ([2]; 0’ (pre-incubation time)): 3.4%; TbrCatL 10’ Inhibition ([2]; 10’ (pre-incubation time)): 7% |
| Cc1cccc(Cn2ccc(NC(=O)c3ccc4c(c3)OCO4)n2)c1 [MMV676386] | 8 | 2.6 | 2.8 | 1.8 | – |
| COc1cccc(-n2nnnc2S(=O)(=O)Cc2ccccc2)c1 [MMV676388] | 15 | 12 | 18 | 15 | – |
| O=C(c1n[nH]c2c1CCCC2)N1CCN(Cc2ccc3c(c2)OCO3)CC1 [MMV676389] | -6 | -3.4 | -12 | -7 | – |
| O=C(Nc1cccnc1)c1c(O)c2cccc3c2n(c1=O)CC3 [MMV676395] | 10 | 8 | 17 | 19 | – |

| Structure (SMILES) | Cruzain Inhibition 0’ [1, 3] [%] | Cruzain Inhibition 10’ [1, 4] [%] | TbrCatL Inhibition 0’ [2, 3] [%] | TbrCatL Inhibition 10’ [2, 4] [%] | also measured |
| --- | --- | --- | --- | --- | --- |
| CCS(=O)(=O)N(Cc1ccco1)Cc1cc2ccc(C)cc2[nH]c1=O [MMV676398] | – | – | – | – | Cruzain 0’ Inhibition ([1]; 0’ (pre-incubation time)): 6.5%; Cruzain 10’ Inhibition ([1]; 10’ (pre-incubation time)): 28%; TbrCatL 0’ Inhibition ([2]; 0’ (pre-incubation time)): 8%; TbrCatL 10’ Inhibition ([2]; 10’ (pre-incubation time)): 9% |
| c1coc(CNc2nc(N3CCCCC3)nc3ccccc23)c1 [MMV676401] | 4.6 | 9 | 6.5 | 15 | – |
| CC(C)n1ncc2c(C(=O)NCC(c3cccs3)N3CCOCC3)cc(-c3ccccc3)nc21 (stereo not drawn) [MMV676406] | 6 | 6 | 17 | 15 | – |
| O=C(COc1cccc(F)c1)Nc1nc(-c2ccccn2)cs1 [MMV676409] | -227 | – | -77 | – | Increase in the initial velocity of the reaction (%) 5 µM using PB samples Cruzain [1, 7]: 510 ± 216%; Increase in the initial velocity of the reaction (%) 5 µM using solid samples Cruzain ([1]; 5 µM, solid samples, 10 min pre-incubation, vs DMSO control): -4 ± 2%; Increase in the initial velocity of the reaction (%) 100 µM using solid samples Cruzain ([1]; 100 µM, solid samples, 10 min pre-incubation, vs DMSO control): 0 ± 6%; Increase in the enzyme velocity in confirmatory assays ([1]; solid samples, varying compound concentrations): no increase in the enzyme velocity; Increase in the initial velocity of the reaction (%) 5 µM using PB samples TbrCatL [2, 7]: 772 ± 382%; Increase in initial velocity of substrate cleavage in comparison to the DMSO control ([2]; TbrCatL 10′ inc, screening at 5 µM): up to 8 fold |
| CC(Oc1ccccc1)C(=O)Nc1nc(-c2ccccn2)cs1 (stereo not drawn) [MMV676411] | – | – | – | – | Cruzain 0’ Inhibition ([1]; 0’ (pre-incubation time)): -2.3%; Cruzain 10’ Inhibition ([1]; 10’ (pre-incubation time)): 0.8%; TbrCatL 0’ Inhibition ([2]; 0’ (pre-incubation time)): -14%; TbrCatL 10’ Inhibition ([2]; 10’ (pre-incubation time)): -0.8% |
| N#Cc1nc(-c2ccccc2)oc1S(=O)(=O)c1ccc(Cl)cc1 [MMV676412] | 6 | -27 | 5.5 | -69 | – |
| Cc1ccc(NC(=O)CC2COc3ccccc3O2)cc1Cl (stereo not drawn) [MMV676431] | 0.5 | 4.3 | 5 | 5 | – |
| Cc1ccc2nc(Cl)c(CNCc3cccs3)cc2c1 [MMV676439] | -0.1 | 6.5 | 5.4 | 5 | – |
| CC(C)c1ncc(-c2ccncc2)c(C2CCC(CNC(=O)c3cccnc3)CC2)n1 (stereo not drawn) [MMV676442] | 4 | 1.2 | -7.5 | -6 | – |
| O=C(NC1CCCCC1)N1CCN(Cc2ccc3c(c2)OCO3)CC1 [MMV676444] | 0.4 | 5.5 | 9 | 8 | – |
| CCCn1c(CNc2ccccc2O)nc2ccccc21 [MMV676445] | 1.2 | 3.6 | 6 | 3.3 | – |
| CCc1nc2ccccc2n1CC(O)COc1cc(C)ccc1Cl (stereo not drawn) [MMV676449] | 4.5 | 6 | 1.5 | 3.5 | – |
| CCOC(=O)c1cc(-c2csc(Nc3c(C)cc(C)cc3C)n2)on1 [MMV676461] | -2.6 | 4 | 6 | 15 | – |
| NC(CC(=O)c1ccc(Cl)cc1Cl)C(Cl)(Cl)Cl (stereo not drawn) [MMV676468] | – | – | – | – | Cruzain 0’ Inhibition ([1]; 0’ (pre-incubation time)): 2.5%; Cruzain 10’ Inhibition ([1]; 10’ (pre-incubation time)): 0.4%; TbrCatL 0’ Inhibition ([2]; 0’ (pre-incubation time)): -5%; TbrCatL 10’ Inhibition ([2]; 10’ (pre-incubation time)): -2% |
| CCOc1ccc(OCC(=O)Nc2cc(C)cc(C)c2)cc1 [MMV676470] | – | – | – | – | Cruzain 0’ Inhibition ([1]; 0’ (pre-incubation time)): 6%; Cruzain 10’ Inhibition ([1]; 10’ (pre-incubation time)): 9%; TbrCatL 0’ Inhibition ([2]; 0’ (pre-incubation time)): -0.9%; TbrCatL 10’ Inhibition ([2]; 10’ (pre-incubation time)): 4% |
| COc1cccc(OC)c1C(=O)Nc1ccc(Cl)c(-c2nc3ccccc3s2)c1 [MMV676472] | – | – | – | – | Cruzain 0’ Inhibition ([1]; 0’ (pre-incubation time)): 8%; Cruzain 10’ Inhibition ([1]; 10’ (pre-incubation time)): 14%; TbrCatL 0’ Inhibition ([2]; 0’ (pre-incubation time)): 4%; TbrCatL 10’ Inhibition ([2]; 10’ (pre-incubation time)): -2% |

Source: PMC9967275, “Screening the Pathogen Box to Discover and Characterize New Cruzain and TbrCatL Inhibitors” (Pathogens, 2023)
